Test results taken from patent US20220033360A1, “OPHTHALMIC COMPOSITIONS AND METHODS FOR THE TREATMENT OF SKIN DISEASES AND EYE DISEASES” (Cellix Bio Private Limited, priority 2018, published 2022).
Like-named read-outs stand apart in the source and are kept apart here.

What was measured:
[1] = biological target: human 5-HT2B receptors (Homo sapiens, UniProt P41595); assay: 5-HT2B agonist assay, intracellular calcium (Fluo-3, FLIPR) in HEK-293 cells; format: cell-based; details: HEK-293 cells expressing human 5-HT2B
Protocol: 5-HT2B receptors stably expressing HEK-293 cells were maintained in Dulbecco's modified Eagle's medium (DMEM) supplemented with 10% fetal bovine serum and 250 microgm·mL-1 G-418. HEK-293 cells expressing human 5-HT2B receptors were seeded in […] poly-D-lysine coated plates at a density of 50,000 cells·well-1 in DMEM containing 10% (v.v-1) dialyzed fetal bovine serum and 250 microgm·mL-1 G-418. After overnight incubation, the cells were washed three times with Hank's buffered saline solution containing 2 mM CaCl2), 10 mM HEPES and 2.5 mM probenecid. The cells were incubated with 2 microM Fluo-3 AM in Hank's buffered saline solution for 60 min at 37 C. The Fluo-3 loaded cells were then washed four times with Hank's buffered saline solution. Agonist-induced changes in intracellular calcium concentrations were determined at room temperature using a Fluorometric Imaging Plate Reader.

[2] = system: 5-LO; assay: Lipoxygenase inhibitor screening assay, cell-free, 5-LO with linoleic acid as substrate; format: biochemical
Protocol: (§1) CLX-162C-C01 in concentrations ranging from 0.001 to 1.2 mM was added to 5-LO or 15-LO in the screening assay buffer, respectively, and the LO inhibitor screening assay was immediately started by addition of the corresponding substrates and running for 5 min. The inhibitory capacity of CLX-162C-C01 against lipoxygenases was studied in a cell-free system consisting of CLX-162C-C01 and 5-LO or 15-LO together with appropriate substrates, respectively.

[3] = system: 15-LO; assay: Lipoxygenase inhibitor screening assay, cell-free, 15-LO with arachidonic acid as substrate; format: biochemical; details: concentrations from 0.32 to 0.93 mM
Protocol: as §1

[4] = Oxidative capacity of UCP (oxidation of methionine to methionine sulfoxide), cell-free; details: 0.1 to 10 mM, preincubation 60 min, methionine sulfoxide formation
Protocol: The influence of CLX-162C-C01 on the oxidative capacity of UCP was studied by preincubating UCP (2 mg/ml H2O) with various concentrations of CLX-162C-C01 (0.1, 1, and 10 mM) for 60 min at room temperature in parallel with the controls. To assay the oxidative capacity of UCP, aliquots of 50 microlit (100 microgm UCP) of particle suspension taken from the preincubations were suspended in 1 ml H2O and incubated in the presence of 100 microM methionine for 2 h at 25° C. Formation of methionine sulfoxide was measured fluorometrically after precolumn derivatization with o-phthaldialdehyde and HPLC. […] The oxidative potential of the particles was subsequently determined by their capacity to oxidize […] sulfoxide. […] CLX-162C-C01 antioxidative potency to prevent the oxidation of methionine by agglomerates of ultrafine carbon particles (UCPs). Particulate stimulants such as UCP and zymosan activate lipid mediator synthesis and to induce oxidative stress in macrophages.

human 5-HT2B receptors, sequence (P41595 whole entry): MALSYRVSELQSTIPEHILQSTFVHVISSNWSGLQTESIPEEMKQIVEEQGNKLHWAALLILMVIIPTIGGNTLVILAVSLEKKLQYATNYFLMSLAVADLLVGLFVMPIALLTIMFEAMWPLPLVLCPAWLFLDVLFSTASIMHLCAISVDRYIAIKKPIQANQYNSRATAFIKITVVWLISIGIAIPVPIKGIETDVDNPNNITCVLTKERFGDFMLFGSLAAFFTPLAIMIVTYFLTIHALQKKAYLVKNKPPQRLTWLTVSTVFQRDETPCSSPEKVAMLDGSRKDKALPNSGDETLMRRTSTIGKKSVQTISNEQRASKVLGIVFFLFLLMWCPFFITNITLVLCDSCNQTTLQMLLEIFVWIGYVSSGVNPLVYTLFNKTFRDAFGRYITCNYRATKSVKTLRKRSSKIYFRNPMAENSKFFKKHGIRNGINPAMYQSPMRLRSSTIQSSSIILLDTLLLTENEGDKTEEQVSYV

EC50 ([1]; read-out: EC50, 5-HT2B agonist effect): 14.2 nM
EC50 ([1]; read-out: pEC50 (-log EC50), 5-HT2B agonist effect (converted)): 490 nM
IC50 ([2]; linoleic acid substrate, 5 min, read-out: 50% inhibition of 5-LO): 320000 nM
SMILES: Cc1cc(C(C)(C)C)c(O)c(C)c1CC1=NCCN1 [CLX-162C-C01, 2-(4-(tert-butyl)-3-hydroxy-2,6-dimethylbenzyl)-4,5-dihydro-1Himidazol-1-ium (R)-5-(1,2-dithiolan-3-yl) pentanoate]
inhibition of the activity of 5-LO ([2]; concentrations from 0.32 to 0.93 mM): strongly inhibited
inhibition of the activity of 15-LO [3]: only marginally affected
effect on oxidative capacity of UCP [4]: did not reduce
